Type in all cases: in vivo
Assay [1] deals with Alopecurus myosuroides (ALOMY). In words: Pre-emergence biological efficacy, glasshouse pot test. The note with it: 312 h. An outline of the steps:
(§1)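 Scores on a 0–100 damage scale were taken 13 days after spraying. Application rate 1000 or 250 g/ha, one day after sowing, in acetone/water-based aqueous spray containing 0.5% Tween 20.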

Assay [2] concerns Amaranthus retoflexus (AMARE). The assay is described as above. The following applies: Amaranthus retroflexus, 312 h. An outline of the steps: as §1
In assay [3] the test system is Echinochloa crus-galli (ECHCG). The description is as above. The following applies: 312 h. An outline of the steps:
as §1

The subject of assay [4] is Ipomea hederaceae (IPOHE). Described as above. The note with it: Ipomoea hederacea, 312 h. Put shortly: as §1
The subject of assay [5] is Setaria faberi (SETFA). The assay is described as above. The following applies: 312 h. An outline of the steps:
as §1

The test system of assay [6] is Solanum nigrum (SOLNI). The description is as above. The following applies: 312 h. An outline of the steps: as §1
For assay [7], the system named is Alopecurus myosuroides (ALOMY). In words: Post-emergence biological efficacy, glasshouse pot test. The note with it: 312 h. An outline of the steps:
(§2)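 Scored 13 days after spraying on a 0 (no damage) to 100 (total damage) scale. Treatment was a post-emergence spray at 1000 or 250 g/ha, from acetone/water 50:50 plus 0.5% Tween 20, onto 8-day-old plants in soil pots. Growth at 24/16° C, 14 h photoperiod, 65% humidity, watered twice daily.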

Assay [8] relates to Amaranthus retoflexus (AMARE). The description is as above. The note with it: Amaranthus retroflexus, 312 h. Put shortly:
as §2

In assay [9] the test system is Echinochloa crus-galli (ECHCG). Described as above. The note with it: 312 h. An outline of the steps: as §2
Assay [10] deals with Ipomea hederaceae (IPOHE). The description is as above. The note with it: Ipomoea hederacea, 312 h. Put shortly:
as §2

In assay [11] the test system is Setaria faberi (SETFA). The assay is described as above. The note with it: 312 h. An outline of the steps: as §2
Assay [12] concerns Solanum nigrum (SOLNI). Described as above. The following applies: 312 h. Put shortly:
as §2

[13] abbreviates: pre-emergence, 1,000 g/ha, evaluated after 13 days (100=total damage; 0=no damage), read-out: Percentage damage ALOMY.
The mark [14] stands for this setting: pre-emergence, 1,000 g/ha, evaluated after 13 days (100=total damage; 0=no damage), read-out: Percentage damage AMARE.
[15] abbreviates: pre-emergence, 1,000 g/ha, evaluated after 13 days (100=total damage; 0=no damage), read-out: Percentage damage ECHCG.
The mark [16] stands for this setting: pre-emergence, 1,000 g/ha, evaluated after 13 days (100=total damage; 0=no damage), read-out: Percentage damage IPOHE.
The mark [17] stands for this setting: pre-emergence, 1,000 g/ha, evaluated after 13 days (100=total damage; 0=no damage), read-out: Percentage damage SETFA.
The mark [18] stands for this setting: pre-emergence, 1,000 g/ha, evaluated after 13 days (100=total damage; 0=no damage), read-out: Percentage damage SOLNI.
[19] abbreviates: post-emergence, 1,000 g/ha, evaluated after 13 days (100=total damage; 0=no damage), read-out: Percentage damage caused to weed species, ALOMY.
The mark [20] stands for this setting: post-emergence, 1,000 g/ha, evaluated after 13 days (100=total damage; 0=no damage), read-out: Percentage damage caused to weed species, AMARE.
The mark [21] stands for this setting: post-emergence, 1,000 g/ha, evaluated after 13 days (100=total damage; 0=no damage), read-out: Percentage damage caused to weed species, ECHCG.
The mark [22] stands for this setting: post-emergence, 1,000 g/ha, evaluated after 13 days (100=total damage; 0=no damage), read-out: Percentage damage caused to weed species, IPOHE.
Setting [23] is: post-emergence, 1,000 g/ha, evaluated after 13 days (100=total damage; 0=no damage), read-out: Percentage damage caused to weed species, SETFA.
Setting [24] is: post-emergence, 1,000 g/ha, evaluated after 13 days (100=total damage; 0=no damage), read-out: Percentage damage caused to weed species, SOLNI.

For `COC(=O)c1nc(C2CC2)nc(N[C@H](CO)Cc2ccccc2)c1Cl` [4-273 (S), 5-Chloro-2-cyclopropyl-4-[(1S)-1-hydroxymethyl-2-phenyl-ethylamino]-6-methoxy-carbonylpyrimidine], the pest or weed control at 1000 g/ha worked out at 40% in assay [1] (setting [13]); 100% in assay [2] (setting [14]); 60% in assay [3] (setting [15]); 90% in assay [4] (setting [16]); 80% with Setaria faberi (SETFA) [5] (setting [17]); 90% in the assay with Solanum nigrum (SOLNI) [6] (setting [18]). Besides, the pest or weed control at 1000 g/ha in assay [7] (setting [19]) is 50%; in assay [8] (setting [20]) it was 100%; in assay [9] (setting [21]), 60%; in assay [10] (setting [22]), 90%; in the assay with Setaria faberi (SETFA) [11] (setting [23]) it was 70%; in the assay on Solanum nigrum (SOLNI) [12] (setting [24]), 100%.
Consider `COC(=O)c1nc(C2CC2)nc(N(C)Cc2ccccc2[N+](=O)[O-])c1Cl` [Compound 5-90, 5-Chloro-2-cyclopropyl-6-methoxycarbonyl-4-[N-methyl-N-(2-nitrophenylmethyl)-amino]pyrimidine], for which the pest or weed control at 1000 g/ha in assay [1] (pre-emergence, rate 1,000 g/ha, evaluated after 13 days (100=total damage to plant; 0=no damage), read-out: Percentage damage caused to weed species, ALOMY) was found to be 20%; in assay [2] (pre-emergence, rate 1,000 g/ha, evaluated after 13 days (100=total damage to plant; 0=no damage), read-out: Percentage damage caused to weed species, AMARE), 100%; in assay [3] (pre-emergence, rate 1,000 g/ha, evaluated after 13 days (100=total damage to plant; 0=no damage), read-out: Percentage damage caused to weed species, ECHCG) it was 30%; in [4] (pre-emergence, rate 1,000 g/ha, evaluated after 13 days (100=total damage to plant; 0=no damage), read-out: Percentage damage caused to weed species, IPOHE) it was 90%; in the assay with Setaria faberi (SETFA) [5] (pre-emergence, rate 1,000 g/ha, evaluated after 13 days (100=total damage to plant; 0=no damage), read-out: Percentage damage caused to weed species, SETFA), 30%; in the assay with Solanum nigrum (SOLNI) [6] (pre-emergence, rate 1,000 g/ha, evaluated after 13 days (100=total damage to plant; 0=no damage), read-out: Percentage damage caused to weed species, SOLNI) it was 90%. Also, the pest or weed control at 1000 g/ha in assay [7] (Rate 1,000 g/ha, post-emergence spray, evaluated after 13 days (100=total damage to plant; 0=no damage to plant), read-out: Percentage damage caused to weed species, post-emergence, ALOMY) came to 50%; in [8] (Rate 1,000 g/ha, post-emergence spray, evaluated after 13 days (100=total damage to plant; 0=no damage to plant), read-out: Percentage damage caused to weed species, post-emergence, AMARE), 100%; in assay [9] (Rate 1,000 g/ha, post-emergence spray, evaluated after 13 days (100=total damage to plant; 0=no damage to plant), read-out: Percentage damage caused to weed species, post-emergence, ECHCG), 70%; in assay [10] (Rate 1,000 g/ha, post-emergence spray, evaluated after 13 days (100=total damage to plant; 0=no damage to plant), read-out: Percentage damage caused to weed species, post-emergence, IPOHE) it was 100%; with Setaria faberi (SETFA) [11] (Rate 1,000 g/ha, post-emergence spray, evaluated after 13 days (100=total damage to plant; 0=no damage to plant), read-out: Percentage damage caused to weed species, post-emergence, SETFA) it was 90%; with Solanum nigrum (SOLNI) [12] (Rate 1,000 g/ha, post-emergence spray, evaluated after 13 days (100=total damage to plant; 0=no damage to plant), read-out: Percentage damage caused to weed species, post-emergence, SOLNI), 90%.
For the compound `COC(=O)c1nc(C2CC2)nc(NCc2cc(F)ccc2F)c1Cl` [Compound 4-98, 5-Chloro-2-cyclopropyl-4-(2,5-difluorophenyl-methyl-amino)-6-methoxycarbonyl-pyrimidine], the pest or weed control at 1000 g/ha was determined as 30% in [1] (setting [13]); 50% in [2] (setting [14]); 20% in assay [3] (setting [15]); 60% in [4] (setting [16]); 30% in the assay on Setaria faberi (SETFA) [5] (setting [17]); 60% with Solanum nigrum (SOLNI) [6] (setting [18]). Also, the pest or weed control at 1000 g/ha in assay [7] (setting [19]) stood at 40%; in assay [8] (setting [20]), 100%; in [9] (setting [21]), 80%; in [10] (setting [22]), 100%; with Setaria faberi (SETFA) [11] (setting [23]), 100%; in the assay on Solanum nigrum (SOLNI) [12] (setting [24]), 100%.
With `COC(=O)c1nc(C2CC2)nc(NCc2cnc(Cl)s2)c1Cl` [Compound 4-146, 5-Chloro-4-(2-chlorothiazol-5-ylmethylamino)-2-cyclopropyl-6-methoxycarbonyl-pyrimidine], the pest or weed control at 1000 g/ha in assay [1] (setting [13]) was determined as 50%; in assay [2] (setting [14]), 70%; in assay [3] (setting [15]) it was 50%; in [4] (setting [16]), 100%; with Setaria faberi (SETFA) [5] (setting [17]) it was 0%; with Solanum nigrum (SOLNI) [6] (setting [18]) it was 40%. The pest or weed control at 1000 g/ha in assay [7] (setting [19]) was found to be 20%; in [8] (setting [20]), 90%; in assay [9] (setting [21]), 50%; in assay [10] (setting [22]) it was 80%; in the assay on Setaria faberi (SETFA) [11] (setting [23]), 70%; in the assay on Solanum nigrum (SOLNI) [12] (setting [24]) it was 90%.
Take `COC(=O)c1nc(C2CC2)nc(NCc2ccc(OC)cc2)c1Cl` [Compound 4-80, 5-Chloro-2-cyclopropyl-6-methoxycarbonyl-4-(4-methoxyphenyl-methylamino)-pyrimidine]: the pest or weed control at 1000 g/ha in assay [1] (setting [13]) turned out to be 40%; in assay [2] (setting [14]) it was 90%; in [3] (setting [15]), 50%; in assay [4] (setting [16]) it was 90%; with Setaria faberi (SETFA) [5] (setting [17]) it was 60%; with Solanum nigrum (SOLNI) [6] (setting [18]) it was 90%. In addition, the pest or weed control at 1000 g/ha is 30% in [7] (setting [19]); 100% in assay [8] (setting [20]); 60% in assay [9] (setting [21]); 100% in assay [10] (setting [22]); 90% in the assay with Setaria faberi (SETFA) [11] (setting [23]); 100% with Solanum nigrum (SOLNI) [12] (setting [24]).
Take `COC(=O)c1nc(C2CC2)nc(NC(C)(C)c2ccccc2)c1Cl` [Compound 4-189, 5-Chloro-2-cyclopropyl-6-methoxycarbonyl-4-(1-methyl-1-phenyl-ethylamino)-pyrimidine]: the pest or weed control at 1000 g/ha amounted to 20% in [1] (setting [13]); 60% in [2] (setting [14]); 0% in assay [3] (setting [15]); 40% in [4] (setting [16]); 0% in the assay on Setaria faberi (SETFA) [5] (setting [17]); 50% in the assay with Solanum nigrum (SOLNI) [6] (setting [18]). Further, the pest or weed control at 1000 g/ha came to 20% in assay [7] (setting [19]); 100% in [8] (setting [20]); 0% in assay [9] (setting [21]); 100% in assay [10] (setting [22]); 50% in the assay on Setaria faberi (SETFA) [11] (setting [23]); 90% with Solanum nigrum (SOLNI) [12] (setting [24]).
On to `COC(=O)c1nc(C2CC2)nc(N[C@@H](C)c2cccc(OC)c2)c1Cl` [4-180 (S), (S)-5-Chloro-2-cyclopropyl-6-methoxycarbonyl-4-[1-(3-methoxy-phenyl)ethylamino]-pyrimidine], for which the pest or weed control at 1000 g/ha in assay [1] (setting [13]) was 0%; in assay [2] (setting [14]) it was 20%; in [3] (setting [15]) it was 0%; in assay [4] (setting [16]), 80%; in the assay with Setaria faberi (SETFA) [5] (setting [17]), 0%; in the assay with Solanum nigrum (SOLNI) [6] (setting [18]), 10%. The pest or weed control at 1000 g/ha in assay [7] (setting [19]) was found to be 20%; in assay [8] (setting [20]), 80%; in assay [9] (setting [21]) it was 50%; in assay [10] (setting [22]), 80%; in the assay on Setaria faberi (SETFA) [11] (setting [23]) it was 30%; with Solanum nigrum (SOLNI) [12] (setting [24]) it was 70%.
